Bounds are passed on as bounds.

The test concerns p-IKKa levels in L363 (NIK translocated multiple myeloma) cells. The test is described as follows: Assay 2: Effect of compounds on p-IKKa levels in L363 (NIK translocated multiple myeloma) cells. Format: cell-based. To be noted: Homo sapiens, L-363, 6 h, read-out: Assay 2 IC50 (nM), p-IKKa (Ser 176/180) in BAFF stimulated L363 cells with MG132, 6 h; average if tested more than once. The method, boiled down: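 Read-out is p-IKKa Ser176/180 by AlphaLISA SureFire in lysates. Cells were BAFF-primed (250 ng/ml) overnight or left unstimulated, then exposed 6 h at 37 °C to compound with MG132 (10 μM), 0.3% DMSO. IC50 from sigmoidal curve fit, normalized between stimulated and unstimulated controls.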
Consider `CN1CC[C@@](O)(c2cc(-c3cccc(-c4ccnc(NCC(=O)N5CC(F)(F)C5)n4)n3)no2)C1=O` [Example 185, (R)-3-(3-(6-(2-((2-(3,3-Difluoroazetidin-1-yl)-2-oxoethyl)amino)pyrimidin-4-yl)pyridin-2-yl)isoxazol-5-yl)-3-hydroxy-1-methylpyrrolidin-2-one], for which the IC50 is more than 500 nM. Then `CN1CC[C@@](O)(c2cc(-c3cccc(-c4ccnc(Nc5ccon5)n4)n3)no2)C1=O` [Example 186, (R)-3-Hydroxy-3-(3-(6-(2-(isoxazol-3-ylamino)pyrimidin-4-yl)pyridin-2-yl)isoxazol-5-yl)-1-methylpyrrolidin-2-one], with 50 to 500 nM; and `Cc1c(Nc2nccc(-c3cccc(-c4cc([C@@]5(O)CCN(C)C5=O)on4)n3)n2)cnn1C1CCOCC1` [Example 187, (S)-3-Hydroxy-1-methyl-3-(3-(6-(2-((5-methyl-1-(tetrahydro-2H-pyran-4-yl)-1H-pyrazol-4-yl)amino)pyrimidin-4-yl)pyridin-2-yl)isoxazol-5-yl)pyrrolidin-2-one], with less than 50 nM.

`Cc1ncccc1Nc1nccc(-c2cccc(-n3cc([C@]4(O)CCN(C)C4=O)nn3)n2)n1` [Example 190, (R)-3-Hydroxy-1-methyl-3-(1-(6-(2-((2-methylpyridin-3-yl)amino)pyrimidin-4-yl)pyridin-2-yl)-1H-1,2,3-triazol-4-yl)pyrrolidin-2-one]: the IC50 was less than 50 nM. On to `Cc1cc(Nc2nccc(-c3cccc(-n4cc([C@]5(O)CCN(C)C5=O)nn4)n3)n2)ccn1` [Example 191, (R)-3-Hydroxy-1-methyl-3-(1-(6-(2-((2-methylpyridin-4-yl)amino)pyrimidin-4-yl)pyridin-2-yl)-1H-1,2,3-triazol-4-yl)pyrrolidin-2-one], for which the IC50 was less than 50 nM.

With `CN1CC[C@@](O)(c2cc(-c3cccc(-c4ccnc(Nc5cc6n(n5)CC(C)(C)OC6)n4)n3)no2)C1=O` [Example 192, (R)-3-(3-(6-(2-((6,6-Dimethyl-6,7-dihydro-4H-pyrazolo[5,1-c][1,4]oxazin-2-yl)amino)pyrimidin-4-yl)pyridin-2-yl)isoxazol-5-yl)-3-hydroxy-1-methylpyrrolidin-2-one], the IC50 is less than 50 nM. Then `[2H]c1cc(-c2cccc(-n3cc([C@]4(O)CCN(C)C4=O)nn3)n2)nc(Nc2ccn(C)n2)n1` [Example 193, (R)-3-Hydroxy-1-methyl-3-(1-(6-(2-((1-methyl-1H-pyrazol-3-yl)amino)pyrimidin-4-yl-6-d)pyridin-2-yl)-1H-1,2,3-triazol-4-yl)pyrrolidin-2-one], with less than 50 nM. For `CN1CC[C@@](O)(c2cc(-c3cccc(-c4ccnc(Nc5cnn6c5OCCC6)n4)n3)no2)C1=O` [Example 194, (R)-3-(3-(6-(2-((6,7-Dihydro-5H-pyrazolo[5,1-b][1,3]oxazin-3-yl)amino)pyrimidin-4-yl)pyridin-2-yl)isoxazol-5-yl)-3-hydroxy-1-methylpyrrolidin-2-one], the IC50 was less than 50 nM. Turning to `Cc1cc(Nc2nccc(-c3cccc(-c4cc([C@]5(O)CCN(C)C5=O)on4)n3)n2)ccn1` [Example 196, (R)-3-Hydroxy-1-methyl-3-(3-(6-(2-((2-methylpyridin-4-yl)amino)pyrimidin-4-yl)pyridin-2-yl)isoxazol-5-yl)pyrrolidin-2-one], the IC50 was less than 50 nM. For the compound `Cc1ncccc1Nc1nccc(-c2cccc(-c3cc([C@]4(O)CCN(C)C4=O)on3)n2)n1` [Example 197, (R)-3-Hydroxy-1-methyl-3-(3-(6-(2-((2-methylpyridin-3-yl)amino)pyrimidin-4-yl)pyridin-2-yl)isoxazol-5-yl)pyrrolidin-2-one], the IC50 is less than 50 nM. As to `[2H]c1cc(-c2cccc(-c3cc([C@]4(O)CCN(C)C4=O)no3)n2)nc(Nc2ccn(C)n2)n1` [Example 200, (R)-3-Hydroxy-1-methyl-3-(5-(6-(2-((1-methyl-1H-pyrazol-3-yl)amino)pyrimidin-4-yl-6-d)pyridin-2-yl)isoxazol-3-yl)pyrrolidin-2-one], the IC50 is less than 50 nM.

The values above are taken from US20250282768A1 (Janssen Pharmaceutica NV, priority 2022, published 2025).
